Publication PMC4640888, “Discovery and Characterization of a Potent Interleukin-6 Binding Peptide with Neutralizing Activity In Vivo” (PLoS ONE, 2015)
Positions of bridges follow the written chain, without caps; N, C: chain ends. Non-standard residues stand in square brackets, D forms with d. Residues, ends and D or L forms follow the SMILES beside them. Phe(4-F) = N[C@@H](Cc1ccc(F)cc1)C(=O)O; Gla = N[C@@H](CC(C(=O)O)C(=O)O)C(=O)O; Cha = N[C@@H](CC1CCCCC1)C(=O)O

Tests used:
[1] = system: IL-6; conditions: cited from earlier work
Description: The inhibitory potency of PN-2921 was assessed in human whole blood ...

[2] = target: IL-6-induced pSTAT3 in U937 cells (Homo sapiens, UniProt P05231); assay: pSTAT3 HTRF assay in U937 cells; assay type: cell-based
IL-6-induced pSTAT3 in U937 cells, sequence (P05231 30-212): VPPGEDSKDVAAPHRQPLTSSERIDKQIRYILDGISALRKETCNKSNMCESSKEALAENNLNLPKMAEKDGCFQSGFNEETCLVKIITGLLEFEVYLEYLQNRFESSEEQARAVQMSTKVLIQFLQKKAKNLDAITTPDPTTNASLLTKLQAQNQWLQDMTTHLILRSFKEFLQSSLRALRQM
Description: Peptides were serially diluted in medium containing 10% fetal bovine serum (FBS)/4% DMSO, then added to recombinant IL-6 (Xtal Biostructures, Inc., Natick, MA) at 28.2 ng/mL and the resulting plate was incubated at room temperature with shaking for 2.5 h at 37°C. […] After incubation for 12 min at 37°C the cells were centrifuged at 4°C (1400 rpm for 5 min) and the media was removed from the plates. Cells were placed on ice and 50 μL lysis buffer (Cisbio Assays, Bedford MA) was added. Phosphorylation of STAT3 was detected as described by the provider (Cisbio Assays). Briefly, cells were lysed for 30 min at room temperature and then 16 μL of lysates was added to a 384-well Proxiplate (Perkin Elmer, Waltham, MA). Anti-STAT3-d2+anti pSTAT-3-K detection cocktail (4μL; Cisbio Assays) was then added to the wells and the plate covered with a plate sealer and returned to 4°C overnight. Plates were then read with an Envision plate reader at ex 340, em 615 and 665 nm. […] These mixtures were then added to U937 cells for 15 min at 37°C and pSTAT3 was detected as described above.

[3] = Comparative PK of PEGylated peptides in rats; assay type: in vivo; conditions: rat; male rats, single SC dose 0.23 μmol/kg, plasma, LC-MS/MS, non-compartmental; read-out: PK half-life (t1/2) (converted)
Description: Male rats for pharmacokinetic studies were obtained from Harlan Laboratories (South Easton, MA. […] For all time points, blood samples were collected via retro-orbital eye bleed or exsanguination via abdominal aorta into tubes containing K2EDTA and were processed into plasma, which was placed in Eppendorf Protein LoBind tubes and stored frozen at approximately -70°C until quantitative bioanalysis.
The dosing solutions were formulated just prior to administration, in sterile 1X PBS with 0.1% BSA. Plasma sample extraction was performed by aliquoting 100 μL of each rat plasma sample into a standard 96-well plate. To each well, 400 μL of 5% formic acid in acetonitrile (containing 200 ng/mL of internal standard) was added. The plate was vortexed at high speed for approximately 10 min and then centrifuged for 15 min, 4700 x g at 4°C. Supernatant (425 μL) was transferred into a clean 96-well plate and evaporated to dryness under nitrogen at approximately 50°C. The extracts were then reconstituted in 50 μL of 1% formic acid in 60% acetonitrile.
Reconstituted extracts (5 μL) were analyzed by liquid chromatography-tandem mass spectrometry (LC-MS/MS) with positive electrospray ionization (QTrap 5500, AB SCIEX, Framingham, MA). […]

[4] = target: T1, IL-6/IL-6R (Homo sapiens, UniProt P05231); assay: IL-6 – IL-6R competition ELISA; assay type: binding; conditions: compared to PN-1454
T1 construct: purchased PeproTech
T1 sequence (P05231 30-212): as above
Description: Peptides were initially evaluated using a competitive enzyme-linked immunosorbent assay (ELISA). High binding 96-well microtiter plates (half-area, Corning Life Sciences, Corning, NY)) were coated with 0.1 μg per well of IL-6R (PeproTech, Rocky Hill, NJ) overnight at 4°C. The wells were then blocked for 2 h with a 1% BSA (Sigma, St. Louis, MO) solution containing 0.1% Tween-20 (Amresco, Solon, OH) and subsequently washed with wash buffer (PBS containing 0.1% Tween-20). Peptides were serially diluted in assay buffer (0.1% BSA, 0.05% Tween-20 in PBS) and incubated with a 50 pM biotinylated IL-6 (PeproTech) for 30 min at room temperature. This mixture was then transferred to an assay plate, and the plate incubated for 1 h. The plate was washed with wash buffer, and presence of bound IL-6 detected through addition of streptavidin poly-horseradish peroxidase conjugate (Pierce, Rockford IL). Plates were developed using a TMB substrate kit (Pierce) and stopped with 2N H2SO4. Inhibition of complex formation was measured as a reduction in absorbance at 450 nm.

siltuximab: monoclonal antibody specific for IL-6
potency [1]: pM range

CC[C@H](C)[C@@H]1NC(=O)[C@@H](NC(=O)[C@H](CC(=O)O)NC(=O)[C@H](CC2CCCCC2)NC(=O)[C@H](CC(=O)O)NC(=O)[C@H](CO)NC(=O)[C@H](CCC(N)=O)NC(C)=O)CSSC[C@@H](C(=O)N[C@@H](CCC(=O)O)C(=O)O)NC(=O)[C@H](CCC(=O)O)NC(=O)[C@H](CC(=O)O)NC(=O)[C@H](CC(N)=O)NC(=O)[C@H]([C@@H](C)CC)NC(=O)[C@H](CCCCN)NC(=O)[C@H](CC(C(=O)O)C(=O)O)NC(=O)[C@H]([C@@H](C)CC)NC(=O)[C@H](CCCNC(=N)N)NC(=O)[C@H](CCC(=O)O)NC(=O)[C@H](Cc2c[nH]c3ccccc23)NC(=O)[C@H](CCCNC(=N)N)NC(=O)[C@H](CCC(N)=O)NC(=O)[C@H](CCC(=O)O)NC(=O)[C@H](CCC(=O)O)NC(=O)[C@H]([C@@H](C)O)NC(=O)[C@H](CC(C)C)NC(=O)[C@H](CC(N)=O)NC(=O)[C@@H]2CCCN2C(=O)[C@H](CC(=O)O)NC(=O)[C@H](CC(C)C)NC(=O)[C@H](Cc2ccc(F)cc2)NC(=O)[C@H](C)NC(=O)[C@H](CCC(=O)O)NC(=O)[C@H](CC(C)C)NC(=O)[C@H](CC(C)C)NC(=O)[C@H](CCCNC(=N)N)NC(=O)[C@H](Cc2c[nH]cn2)NC1=O [PN-2519] (Ac-QSD[Cha]DCIHRLLEA[Phe(4-F)]LDPNLTEEQRWERI[Gla]KINDECE-OH; disulfide 6-35)
fold improvement in cell-based activity ([2]; compared to PN-1974, U937 pSTAT3): ~ 1000 fold | antagonist activity in the IL-6 pSTAT3 assay in U937 cells (Fig 2C) ([2]; effect of PEG molecular weight, PEGylation at position 29): comparable

CC[C@H](C)[C@@H]1NC(=O)[C@@H](NC(=O)[C@H](CC(=O)O)NC(=O)[C@H](CC2CCCCC2)NC(=O)[C@H](CC(=O)O)NC(=O)[C@H](CO)NC(=O)[C@H](CCC(N)=O)NC(C)=O)CSSC[C@@H](C(=O)N[C@@H](CCC(=O)O)C(=O)O)NC(=O)[C@H](CCC(=O)O)NC(=O)[C@H](CC(=O)O)NC(=O)[C@H](CC(N)=O)NC(=O)[C@H]([C@@H](C)CC)NC(=O)[C@H](CCCCN)NC(=O)[C@H](CC(C(=O)O)C(=O)O)NC(=O)[C@H]([C@@H](C)CC)NC(=O)[C@H](CCCCN)NC(=O)[C@H](CCC(=O)O)NC(=O)[C@H](Cc2c[nH]c3ccccc23)NC(=O)[C@H](CCCNC(=N)N)NC(=O)[C@H](CCC(N)=O)NC(=O)[C@H](CCC(=O)O)NC(=O)[C@H](CCC(=O)O)NC(=O)[C@H]([C@@H](C)O)NC(=O)[C@H](CC(C)C)NC(=O)[C@H](CC(N)=O)NC(=O)[C@@H]2CCCN2C(=O)[C@H](CC(=O)O)NC(=O)[C@H](CC(C)C)NC(=O)[C@H](Cc2ccc(F)cc2)NC(=O)[C@H](C)NC(=O)[C@H](CCC(=O)O)NC(=O)[C@H](CC(C)C)NC(=O)[C@H](CC(C)C)NC(=O)[C@H](CCCNC(=N)N)NC(=O)[C@H](Cc2c[nH]cn2)NC1=O [PN-2365] (Ac-QSD[Cha]DCIHRLLEA[Phe(4-F)]LDPNLTEEQRWEKI[Gla]KINDECE-OH; disulfide 6-35)
half-life [3]: 3.4 h

CC[C@H](C)[C@@H]1NC(=O)[C@H](CCCCN)NC(=O)CNC(=O)[C@H](Cc2c[nH]c3ccccc23)NC(=O)[C@H](CCCNC(=N)N)NC(=O)[C@H](CCC(N)=O)NC(=O)[C@H](CCC(=O)O)NC(=O)[C@H](CO)NC(=O)[C@H](CC(N)=O)NC(=O)[C@H](CC(C)C)NC(=O)[C@H](CC(N)=O)NC(=O)[C@@H]2CCCN2C(=O)[C@H](CC(=O)O)NC(=O)[C@H](CC(C)C)NC(=O)[C@H](Cc2ccccc2)NC(=O)[C@H](C)NC(=O)[C@H](CCC(=O)O)NC(=O)[C@H](CC(C)C)NC(=O)[C@H](CC(C)C)NC(=O)[C@H](CCCNC(=N)N)NC(=O)[C@H](CCCNC(=N)N)NC(=O)[C@H]([C@@H](C)CC)NC(=O)[C@@H](NC(=O)[C@H](CCC(N)=O)NC(=O)[C@H](CC(C)C)NC(=O)[C@H](CC(N)=O)NC(=O)[C@H](Cc2ccccc2)NC(C)=O)CSSC[C@@H](C(N)=O)NC(=O)[C@H](CC(=O)O)NC(=O)[C@H](CC(=O)O)NC(=O)[C@H](CC(N)=O)NC(=O)[C@H]([C@@H](C)CC)NC(=O)[C@H](CO)NC(=O)[C@H](CC(=O)O)NC1=O [PN-1484] (Ac-FNLQCIRRLLEAFLDPNLNSEQRWGKIDSINDDC-NH2; disulfide 5-34 (inferred))
fold improvement in IC50 in the competitive ELISA [4]: ~ 20 fold
